Data reported in article PMC8214221, “Sequence determinants in the cathelicidin LL-37 that promote inflammation via presentation of RNA to scavenger receptors” (The Journal of Biological Chemistry, 2021).
Residues, ends and D or L forms follow the SMILES beside them.

Tested on: normal human epidermal keratinocytes (NHEKs)
Assay: LDH release cytotoxicity assay in keratinocytes
Type: cell-based
Conditions: minimal concentration giving 50% LDH release by NHEKs
Source text: Since LL-34 was the minimal truncation mutant of LL-37 that retained both antimicrobial and immune modulatory activity, we prepared a series of synthetic peptides with sequential substitutions of alanine at each amino acid position of the LL-34 parent peptide (Table 1). We compared the minimum inhibitory concentration (MIC) for the LL-34 parent peptide and the alanine mutants (LL-34 peptides—L1A and R34A) against methicillin-resistant Staphylococcus aureus strain USA300 (Fig. 1A). LL-34 peptides were incubated at concentrations of 0 to 100 μM with bacteria. The minimal concentration at which no growth was observed was noted after 18 h of incubation. […] Because of these changes in the MIC against S. aureus between the mutants, we investigated the effective toxicity profile of the peptides in normal human epidermal keratinocytes (NHEKs) by lactate dehydrogenase (LDH) release assay (Table 1). […] Most other peptides were cytotoxic at a minimal concentration of 10 μM, whereas LL-34—K15A was toxic at a concentration of 2.5 μM.
LDH cytotoxicity assay was performed according to manufacturer's instructions (Thermo Fisher Scientific). Culture supernatants from keratinocytes were used fresh for LDH assay after experimental treatments.

Structure (SMILES)	Minimal cytotoxic concentration in NHEK (LD50)
CC[C@H](C)[C@H](NC(=O)[C@H](CCCCN)NC(=O)[C@H](CCC(=O)O)NC(=O)[C@H](CCCCN)NC(=O)[C@H](CO)NC(=O)[C@H](CCCCN)NC(=O)[C@H](CCCNC(=N)N)NC(=O)[C@H](Cc1ccccc1)NC(=O)[C@H](Cc1ccccc1)NC(=O)[C@H](CC(=O)O)NC(=O)CNC(=O)[C@H](CC(C)C)NC(=O)[C@@H](N)CC(C)C)C(=O)NCC(=O)N[C@@H](CCCCN)C(=O)N[C@@H](CCC(=O)O)C(=O)N[C@@H](Cc1ccccc1)C(=O)N[C@@H](CCCCN)C(=O)N[C@@H](CCCNC(=N)N)C(=O)N[C@H](C(=O)N[C@@H](C)C(=O)N[C@@H](CCC(N)=O)C(=O)N[C@@H](CCCNC(=N)N)C(=O)N[C@H](C(=O)N[C@@H](CCCCN)C(=O)N[C@@H](CC(=O)O)C(=O)N[C@@H](Cc1ccccc1)C(=O)N[C@@H](CC(C)C)C(=O)N[C@@H](CCCNC(=N)N)C(=O)N[C@@H](CC(N)=O)C(=O)N[C@@H](CC(C)C)C(=O)N[C@H](C(=O)N1CCC[C@H]1C(=O)N[C@@H](CCCNC(=N)N)C(=O)O)C(C)C)[C@@H](C)CC)[C@@H](C)CC [LL-34—V21A] (H-LLGDFFRKSKEKIGKEFKRIAQRIKDFLRNLVPR-OH; N-terminus and C-terminus assumed)	5 µM
CC[C@H](C)[C@H](NC(=O)[C@H](CCCCN)NC(=O)[C@H](CCC(=O)O)NC(=O)[C@H](CCCCN)NC(=O)[C@H](C)NC(=O)[C@H](CCCCN)NC(=O)[C@H](CCCNC(=N)N)NC(=O)[C@H](Cc1ccccc1)NC(=O)[C@H](Cc1ccccc1)NC(=O)[C@H](CC(=O)O)NC(=O)CNC(=O)[C@H](CC(C)C)NC(=O)[C@@H](N)CC(C)C)C(=O)NCC(=O)N[C@@H](CCCCN)C(=O)N[C@@H](CCC(=O)O)C(=O)N[C@@H](Cc1ccccc1)C(=O)N[C@@H](CCCCN)C(=O)N[C@@H](CCCNC(=N)N)C(=O)N[C@H](C(=O)N[C@H](C(=O)N[C@@H](CCC(N)=O)C(=O)N[C@@H](CCCNC(=N)N)C(=O)N[C@H](C(=O)N[C@@H](CCCCN)C(=O)N[C@@H](CC(=O)O)C(=O)N[C@@H](Cc1ccccc1)C(=O)N[C@@H](CC(C)C)C(=O)N[C@@H](CCCNC(=N)N)C(=O)N[C@@H](CC(N)=O)C(=O)N[C@@H](CC(C)C)C(=O)N[C@H](C(=O)N1CCC[C@H]1C(=O)N[C@@H](CCCNC(=N)N)C(=O)O)C(C)C)[C@@H](C)CC)C(C)C)[C@@H](C)CC [LL-34—S9A] (H-LLGDFFRKAKEKIGKEFKRIVQRIKDFLRNLVPR-OH; N-terminus and C-terminus assumed)	5 µM
CC[C@H](C)[C@H](NC(=O)[C@H](CCCCN)NC(=O)[C@H](C)NC(=O)[C@H](CCCCN)NC(=O)[C@H](CO)NC(=O)[C@H](CCCCN)NC(=O)[C@H](CCCNC(=N)N)NC(=O)[C@H](Cc1ccccc1)NC(=O)[C@H](Cc1ccccc1)NC(=O)[C@H](CC(=O)O)NC(=O)CNC(=O)[C@H](CC(C)C)NC(=O)[C@@H](N)CC(C)C)C(=O)NCC(=O)N[C@@H](CCCCN)C(=O)N[C@@H](CCC(=O)O)C(=O)N[C@@H](Cc1ccccc1)C(=O)N[C@@H](CCCCN)C(=O)N[C@@H](CCCNC(=N)N)C(=O)N[C@H](C(=O)N[C@H](C(=O)N[C@@H](CCC(N)=O)C(=O)N[C@@H](CCCNC(=N)N)C(=O)N[C@H](C(=O)N[C@@H](CCCCN)C(=O)N[C@@H](CC(=O)O)C(=O)N[C@@H](Cc1ccccc1)C(=O)N[C@@H](CC(C)C)C(=O)N[C@@H](CCCNC(=N)N)C(=O)N[C@@H](CC(N)=O)C(=O)N[C@@H](CC(C)C)C(=O)N[C@H](C(=O)N1CCC[C@H]1C(=O)N[C@@H](CCCNC(=N)N)C(=O)O)C(C)C)[C@@H](C)CC)C(C)C)[C@@H](C)CC [LL-34—E11A] (H-LLGDFFRKSKAKIGKEFKRIVQRIKDFLRNLVPR-OH; N-terminus and C-terminus assumed)	5 µM
CC[C@H](C)[C@H](NC(=O)[C@H](CCCCN)NC(=O)[C@H](CCC(=O)O)NC(=O)[C@H](CCCCN)NC(=O)[C@H](CO)NC(=O)[C@H](CCCCN)NC(=O)[C@H](CCCNC(=N)N)NC(=O)[C@H](Cc1ccccc1)NC(=O)[C@H](Cc1ccccc1)NC(=O)[C@H](C)NC(=O)CNC(=O)[C@H](CC(C)C)NC(=O)[C@@H](N)CC(C)C)C(=O)NCC(=O)N[C@@H](CCCCN)C(=O)N[C@@H](CCC(=O)O)C(=O)N[C@@H](Cc1ccccc1)C(=O)N[C@@H](CCCCN)C(=O)N[C@@H](CCCNC(=N)N)C(=O)N[C@H](C(=O)N[C@H](C(=O)N[C@@H](CCC(N)=O)C(=O)N[C@@H](CCCNC(=N)N)C(=O)N[C@H](C(=O)N[C@@H](CCCCN)C(=O)N[C@@H](CC(=O)O)C(=O)N[C@@H](Cc1ccccc1)C(=O)N[C@@H](CC(C)C)C(=O)N[C@@H](CCCNC(=N)N)C(=O)N[C@@H](CC(N)=O)C(=O)N[C@@H](CC(C)C)C(=O)N[C@H](C(=O)N1CCC[C@H]1C(=O)N[C@@H](CCCNC(=N)N)C(=O)O)C(C)C)[C@@H](C)CC)C(C)C)[C@@H](C)CC [LL-34—D4A] (H-LLGAFFRKSKEKIGKEFKRIVQRIKDFLRNLVPR-OH; N-terminus and C-terminus assumed)	5 µM
CC[C@H](C)[C@H](NC(=O)[C@H](CCCCN)NC(=O)[C@H](CCC(=O)O)NC(=O)[C@H](CCCCN)NC(=O)[C@H](CO)NC(=O)[C@H](CCCCN)NC(=O)[C@H](CCCNC(=N)N)NC(=O)[C@H](Cc1ccccc1)NC(=O)[C@H](Cc1ccccc1)NC(=O)[C@H](CC(=O)O)NC(=O)CNC(=O)[C@H](CC(C)C)NC(=O)[C@@H](N)CC(C)C)C(=O)N[C@@H](C)C(=O)N[C@@H](CCCCN)C(=O)N[C@@H](CCC(=O)O)C(=O)N[C@@H](Cc1ccccc1)C(=O)N[C@@H](CCCCN)C(=O)N[C@@H](CCCNC(=N)N)C(=O)N[C@H](C(=O)N[C@H](C(=O)N[C@@H](CCC(N)=O)C(=O)N[C@@H](CCCNC(=N)N)C(=O)N[C@H](C(=O)N[C@@H](CCCCN)C(=O)N[C@@H](CC(=O)O)C(=O)N[C@@H](Cc1ccccc1)C(=O)N[C@@H](CC(C)C)C(=O)N[C@@H](CCCNC(=N)N)C(=O)N[C@@H](CC(N)=O)C(=O)N[C@@H](CC(C)C)C(=O)N[C@H](C(=O)N1CCC[C@H]1C(=O)N[C@@H](CCCNC(=N)N)C(=O)O)C(C)C)[C@@H](C)CC)C(C)C)[C@@H](C)CC [LL-34—G14A] (H-LLGDFFRKSKEKIAKEFKRIVQRIKDFLRNLVPR-OH; N-terminus and C-terminus assumed)	5 µM
CC[C@H](C)[C@H](NC(=O)[C@H](CCCCN)NC(=O)[C@H](CCC(=O)O)NC(=O)[C@H](CCCCN)NC(=O)[C@H](CO)NC(=O)[C@H](CCCCN)NC(=O)[C@H](CCCNC(=N)N)NC(=O)[C@H](Cc1ccccc1)NC(=O)[C@H](Cc1ccccc1)NC(=O)[C@H](CC(=O)O)NC(=O)CNC(=O)[C@H](CC(C)C)NC(=O)[C@@H](N)CC(C)C)C(=O)NCC(=O)N[C@@H](CCCCN)C(=O)N[C@@H](CCC(=O)O)C(=O)N[C@@H](Cc1ccccc1)C(=O)N[C@@H](C)C(=O)N[C@@H](CCCNC(=N)N)C(=O)N[C@H](C(=O)N[C@H](C(=O)N[C@@H](CCC(N)=O)C(=O)N[C@@H](CCCNC(=N)N)C(=O)N[C@H](C(=O)N[C@@H](CCCCN)C(=O)N[C@@H](CC(=O)O)C(=O)N[C@@H](Cc1ccccc1)C(=O)N[C@@H](CC(C)C)C(=O)N[C@@H](CCCNC(=N)N)C(=O)N[C@@H](CC(N)=O)C(=O)N[C@@H](CC(C)C)C(=O)N[C@H](C(=O)N1CCC[C@H]1C(=O)N[C@@H](CCCNC(=N)N)C(=O)O)C(C)C)[C@@H](C)CC)C(C)C)[C@@H](C)CC [LL-34—K18A] (H-LLGDFFRKSKEKIGKEFARIVQRIKDFLRNLVPR-OH; N-terminus and C-terminus assumed)	10 µM
